# Source: ChEMBL document CHEMBL3044780, “Simple and Rapid Screening Method for Photosystem II Inhibitory Herbicides Using Photoautotrophically Cultured Plant Cells with Chlorophyll Fluorescence Monitoring” (Biosci Biotechnol Biochem, 1993)
# Experiments:
# [1] = Lipophilicity, log P of the compound; format: physicochemical; conditions: octanol/water
# [2] = tested on: Vigna radiata var. radiata; assay: Herbicidal activity against Vigna radiata var. radiata assessed per 100 m'2 after 10 days by greenhouse pot test; format: functional
SMILES,logP [1],pLD50 [2]
CN(C)C(=O)Nc1ccc(C#N)cc1,0.97,0.63
CN(C)C(=O)Nc1ccc(I)cc1,2.36,1.75
CN(C)C(=O)Nc1ccc(Br)cc1,2.07,1.86
CN(C)C(=O)Nc1ccc(O)cc1,0.37,<0.4
CN(C)C(=O)Nc1cccc(F)c1,1.37,1.76
CN(C)C(=O)Nc1cccc(Cl)c1,2.33,2.16
COc1cccc(NC(=O)N(C)C)c1,1.22,1.15
CN(C)C(=O)Nc1cccc([N+](=O)[O-])c1,1.33,<0.4
CN(C)C(=O)Nc1cccc(C#N)c1,0.98,<0.4
CN(C)C(=O)Nc1cccc(O)c1,,<0.4
CN(C)C(=O)Nc1ccc(F)cc1,1.13,1.67
Cc1ccc(NC(=O)N(C)C)cc1,1.41,1.21
COc1ccc(NC(=O)N(C)C)cc1,1.02,1.61
CN(C)C(=O)Nc1ccc(C(F)(F)F)cc1,2.31,1.45
CN(C)C(=O)Nc1ccc([N+](=O)[O-])cc1,1.43,<0.4
Cc1cccc(NC(=O)N(C)C)c1,1.46,
CN(C)C(=O)Nc1ccc(Cl)c(Cl)c1 [DCMU],,2.75
CN(C)C(=O)Nc1ccccc1 [FENURON],,1.54
CN(C)C(=O)Nc1cccc(C(F)(F)F)c1 [FLUOMETURON],2.2,1.3
CC(C)c1ccc(NC(=O)N(C)C)cc1 [ISOPROTURON],2.87,1.92
CN(C)C(=O)Nc1ccc(Cl)cc1 [MONURON],1.99,2.01
